Measurements as given in patent US7666867B2, “Heteroindanes: a new class of potent cannabimimetic ligands” (University of Connecticut, priority 2001, dated 2010).
Read-outs that look alike come from different tables or passages of the source.

What was measured:
rats [1] = assay: Locomotor activity, rate of beam crossings in photocell apparatus; type: in vivo, rat; conditions: intravenous; for effect on locomotor activity: early after administration, FIG. 3 and 4
Protocol: Rats were injected with varied doses of either some of the inventive compounds or with WIN 55212-2, a known CB1/CB2 receptor agonist. The injected compounds were solubilized in DMSO:40% cyclodextrin (1:10) and intravenously administered.
Locomotor activity was assessed by measuring the rate of beam crossings by rats in a photocell apparatus according to the procedure of M. Cosenza et al, Locomotor Activity and Occupancy of Brain Cannabinoid CB1 Receptors by the Antagonist/Inverse Agonist AM281, Synapse, 38, 477-482 (2000).

CB1 receptor = molecular target: T1, CB1 receptor (Rattus norvegicus, UniProt P20272); assay: CB1 receptor binding assay, [3H]CP-55,940 displacement, rat forebrain membranes
T1 construct: membranes were prepared from rat forebrain membranes; from tissue; host or cells: rat forebrain membranes
T1 sequence (P20272 whole entry): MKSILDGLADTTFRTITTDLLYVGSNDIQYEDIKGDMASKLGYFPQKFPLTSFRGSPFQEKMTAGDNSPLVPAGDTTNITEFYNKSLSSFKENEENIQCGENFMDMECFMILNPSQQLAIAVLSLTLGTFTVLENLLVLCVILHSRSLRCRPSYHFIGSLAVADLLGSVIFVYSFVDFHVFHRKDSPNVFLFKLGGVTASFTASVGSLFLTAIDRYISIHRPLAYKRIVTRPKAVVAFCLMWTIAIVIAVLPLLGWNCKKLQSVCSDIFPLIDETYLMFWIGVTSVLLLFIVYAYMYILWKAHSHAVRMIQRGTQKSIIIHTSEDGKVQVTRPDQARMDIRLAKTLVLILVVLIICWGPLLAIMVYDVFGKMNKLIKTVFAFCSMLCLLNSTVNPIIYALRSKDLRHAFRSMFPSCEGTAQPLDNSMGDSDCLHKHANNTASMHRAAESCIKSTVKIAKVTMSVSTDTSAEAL
Protocol: The inventive analogs were tested for CB2 receptor binding affinity and for CB1 receptor affinity (to determine selectivity for the CB2 receptor). As used herein, “binding affinity” is represented by the IC50 value which is the concentration of an analog required to occupy the 50% of the total number (Bmax) of the receptors. The lower the IC50 value the higher the binding affinity. […] For the CB1 receptor binding studies, membranes were prepared from rat forebrain membranes according to the procedure of P. R. Dodd et al, A Rapid Method for Preparing Synaptosomes: Comparison with Alternative Procedures, Brain Res., 107-118 (1981). The binding of the novel analogues to the CB1 cannabinold receptor was assessed as described in W. A. Devane et al, Determination and Characterization of a Cannabinoid Receptor in a Rat Brain, Mol. Pharmacol., 34, 605-613 (1988) and A. Charalambous et al, 5′-azido Δ^8− THC: A Novel Photoaffinity Label for the Cannabinoid Receptor, J. Med. Chem., 35, 3076-3079 (1992) with the following changes. The above articles are incorporated by reference herein.
Membranes, previously frozen at −80° C., were thawed on ice. To the stirred suspension was added three volumes of TME (25 mM Tris-HCl buffer, 5 mM MgCl2 and 1 mM EDTA) at a pH 7.4. The suspension was incubated at 4° C. for 30 min. At the end of the incubation, the membranes were pelleted and washed three times with TME.
(§1) The treated membranes were subsequently used in the binding assay described below. Approximately 30 μg of membranes were incubated in silanized 96-well microtiter plate with TME containing 0.1% essentially fatty acid-free bovine serum albumin (BSA), 0.8 nM [^3H] CP-55,940, and various concentrations of test materials in a final volume of […]. The assays were incubated for 1 hour at 30° C. and then immediately filtered using Packard Filtermate 196 harvester and Whatman GF/C filterplates and washed with wash buffer (TME) containing 0.5% BSA. Radioactivity was detected using MicroScint 20 scintillation cocktail added directly to the dried filterplates, and the filterplates were counted using a Packard Instruments Top-Count. Nonspecific binding was assessed using 100 nM CP-55,940. Data collected from three independent experiments performed with duplicate determinations was normalized between 100% and 0% specific binding for [^3H] CP-55,940, determined using buffer and 100 nM CP-55,940. The normalized data was analyzed using a 4-parameter nonlinear logistic equation to yield IC50 values. Data from at least two indeperident experiments performed in duplicate was used to calculate IC50 values which were converted to Ki values using the assumptions of Cheng et al, Relationship Between the Inhibition Constant (Ki) and the concentratiori of Inhibitor which causes 50% Inhibition (IC50) of an Enzymatic Reaction, Biochem. Pharmacol., 22, 3099-3102, (1973), which is incorporated by reference herein.

CB2 receptor = molecular target: T2, CB2 receptor (Mus musculus, UniProt P47936); assay: CB2 receptor binding assay, [3H]CP-55,940 displacement, mouse spleen membranes
T2 construct: membranes were prepared from frozen mouse spleen; from tissue; host or cells: frozen mouse spleen membranes
T2 sequence (P47936 whole entry): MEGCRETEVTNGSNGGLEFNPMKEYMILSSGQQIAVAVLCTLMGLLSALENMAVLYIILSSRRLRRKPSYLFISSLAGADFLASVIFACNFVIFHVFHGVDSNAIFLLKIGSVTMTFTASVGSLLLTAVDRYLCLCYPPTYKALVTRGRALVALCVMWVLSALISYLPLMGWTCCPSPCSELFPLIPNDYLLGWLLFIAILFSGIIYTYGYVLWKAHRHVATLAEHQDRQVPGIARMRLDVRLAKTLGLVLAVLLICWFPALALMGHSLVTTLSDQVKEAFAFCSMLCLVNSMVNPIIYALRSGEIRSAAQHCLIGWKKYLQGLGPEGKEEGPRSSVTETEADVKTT
Protocol: as §1
For the CB2 receptor binding studies, membranes were prepared from frozen mouse spleen essentially according to the procedure of P. R. Dodd et al, A Rapid Method for Preparing Synaptosomes: Comparison with Alternative Procedures, Brain Res., 226, 107-118 (1981) which is incorporated by reference herein. Silanized centrifuge tubes were used throughout to minimize receptor loss due to adsorption. The CB2 binding assay was conducted in the same manner as for the CB1 binding assay. The binding affinities (Ki) were also expressed in nanomoles (nM).

rats [2] = assay: Peripheral antinociception, paw withdrawal latency to thermal stimulus; type: in vivo, rat; conditions: ipsilateral i.paw injection, measured 25 min after injection, FIG. 1 and 2
Protocol: Using rats as test subjects, varied doses of some of the inventive compounds were injected subcutaneously in the dorsal surface of the paw (i.paw, 50 μl). Measurements were taken 25 min after i.paw injection. Assessment of antinociceptive action was made by evaluating the response latency to removal of the paw from a focused source of thermal stimulation, as described by T. P. Malan Jr., CB2 Cannabinoid Receptor-mediated Peridpheral Antinociception, Pain, 93, 239-245 (2001), the content of which is incorporated by reference herein. Rats were allowed to acclimate within Plexiglas enclosures on a clear glass plate maintained at 30° C. A radiant heat source (a high-intensity projector lamp) was focused onto the plantar surface of the hindpaw. Activation of the heat source activated a timer, which stopped when withdrawal of the paw was detected with a photodetector. A maximal cut-off of 40 seconds (s) was utilized to prevent tissue damage.
Antinociception is expressed as the percent of the maximum possible effect (% MPE), using the formula: % MPE=(WL-CL)/(CO-CL), where WL is the withdrawal latency obtained experimentally, CL is the control (baseline) value before drug administration, and CO is the cut-off value (40 s). Dose-response curves were generated. Significance was defined as P<0.05.

[3] = rat forebrain membranes, 0.8 nM [3H]CP-55,940, read-out: Ki (nM) CB1

| Compound | cannabinoid-like behaviour in the locomotor assay (rats [1]) | effect on locomotor activity (rats [1]) | Ki (CB1 receptor) [nM] | Ki (CB2 receptor) [nM] | antinociception to a thermal stimulus applied to the hindpaw (rats [2]) | Ki (CB1 receptor; [3]) [nM] |
| --- | --- | --- | --- | --- | --- | --- |
| Cc1c(C(=O)c2cccc3ccccc23)c2cccc3c2n1[C@H](CN1CCOCC1)CO3 [WIN 55212-2, reference compound] | produced the typical cannabinoid-like catalepsy and inhibition of locomotion | significantly reduced locomotor activity | – | – | – | – |
| O=C(NC12CC3CC(CC(C3)C1)C2)c1nn(CCN2CCOCC2)c2ccccc12 [compound 1] | – | – | 6.84 | 0.147 | – | – |
| CN1CCCCC1Cn1nc(C(=O)NC23CC4CC(CC(C4)C2)C3)c2ccccc21 (stereo not drawn) [compound 2] | – | – | 47.5 | 8.74 | – | – |
| N#CCCCCn1nc(C(=O)NC23CC4CC(CC(C4)C2)C3)c2ccccc21 [compound 3] | produced the typical cannabinoid-like catalepsy and inhibition of locomotion | significantly reduced locomotor activity | 2.28 | 0.309 | produced dose-dependent antinociception | – |
| O=C(NC12CC3CC(CC(C3)C1)C2)c1nn(CCCCCl)c2ccccc12 [compound 4] | – | – | 1.65 | 1.34 | – | – |
| O=C(NC12CC3CC(CC(C3)C1)C2)c1nn(CCCCI)c2ccccc12 [compound 5] | – | – | 0.596 | 0.164 | – | – |
| CN(C)CCCn1nc(C(=O)NC23CC4CC(CC(C4)C2)C3)c2ccccc21 [compound 6] | – | – | – | 20.9 | – | 443 |
| O=C(Nc1cccc2ccccc12)c1nn(CCCCCl)c2ccccc12 [compound 7] | – | – | 0.268 | 0.135 | – | – |
| O=C(Nc1cccc2ccccc12)c1nn(CCCCI)c2ccccc12 [compound 8] | – | – | 13.7 | 27 | – | – |
| CN(C)CCCn1nc(C(=O)Nc2cccc3ccccc23)c2ccccc21 [compound 9] | – | – | – | 235 | – | 451 |
| CN1CCCCC1Cn1nc(C(=O)Nc2cccc3ccccc23)c2ccccc21 (stereo not drawn) [compound 10] | – | – | 15 | 8.04 | – | – |
| O=C(NN1CCCCC1)c1nn(-c2ccccc2)c2cc(Br)ccc12 [compound 11] | – | – | – | 84.7 | – | 1850 |
